Results as given in patent US11230542B2, “Inhibitors of integrated stress response pathway” (Praxis Biotech LLC, priority 2017, dated 2022).
Where two headings read alike, the source gives them in different places.

Columns and labels:
CHO cells = assay: Protein translation assay (puromycin incorporation in CHO cells, unstressed or Tg-stressed); format: cell-based, Chinese hamster; conditions: Cricetulus griseus, media alone 100%; for activity at 0.1 µM: read-out: % Recovery of protein expression (100 nM test compound)
Protocol: CHO cells were maintained at 37° C. and 5% CO2 in DMEM supplemented with 10% fetal bovine serum (FBS), 2 mM L-glutamine, 100 U/ml penicillin, and 100 μg/ml streptomycin. After reaching 80% of confluence, cells were detached and seeded on 6 well plates in complete media, allowed to recover overnight and treated for 2 hours with 1 μM of the test compound (to assess protein synthesis levels in unstressed condition), or for 1 hour with 100 nM and 1 μM of the test compound and then co-treated with 300 nM Tg and 100 nM and 1 μM of the test compound (to assess the recovery of protein synthesis in a stressed condition). Cells treated with Tg alone were used as controls.
After the 2 hours treatments, media were replaced by adding 10 μg/ml puromycin (Sigma Aldrich) in complete media for 30 min. Media were removed and cells were lysed with SDS-PAGE lysis buffer. Lysates were transferred to 1.5 ml tubes and sonicated for 3 minutes and total protein amount were quantified using BCA Protein Assay Kit (Pierce). Equal amount of protein (30 μg) was loaded on SDS-PAGE gels. Proteins were transferred onto 0.2 μm PVDF membranes (BioRad) and probed with primary antibodies diluted in Tris-buffered saline supplemented with 0.1% Tween 20 and 3% bovine serum albumin.
(§1) Puromycin (12D10) antibody was used as primary antibody (Merck Millipore). A HRP-conjugated secondary antibody (Rockland) was employed to detect immune-reactive bands using enhanced chemiluminescence (ECL Western Blotting Substrate, Pierce). Quantification of protein bands was done by densitometry using ImageJ.
Percent increase of protein synthesis in unstressed cells (without Tg treatment) in the presence of media alone or certain test compounds is shown in Table 3 and FIG. 2. The percentage levels were normalized to the media alone condition, which correspond to 100% protein synthesis.
Percent recovery of protein synthesis in stressed cells (with Tg treatment) due to the test compounds at 100 nM or 1 μM is shown in FIGS. 3A and 3B, respectively, and in Table 3. The levels were normalized to the media alone and to Tg alone conditions, which correspond to 100% and 0% respectively.

ATF4 = ATF4 expression inhibition assay (thapsigargin-stressed HEK293T cells, western blot); format: cell-based; conditions: Homo sapiens, HEK-293T; for inhibition at 0.1 µM: 3 h with 100 nM thapsigargin (Tg) and 100 nM test compound; for inhibition at 0.1 µM / inhibition at 1 µM: Tg alone 0%, untreated 100%; for inhibition at 1 µM: 3 h with 100 nM thapsigargin (Tg) and 1 μM test compound; for IC50: 3 h with 100 nM Tg, test compound 1 nM to 1 μM
Protocol: HEK293T cells were maintained at 37° C. and 5% CO2 in Dulbecco's Modified Eagle's Media (DMEM) supplemented with 10% fetal bovine serum (FBS), 2 mM L-glutamine, 100 U/ml penicillin, and 100 μg/ml streptomycin. […] Cells without treatment or cells treated with Tg alone were used as controls.
After 3 hours of treatment with Tg and the test compound, cells were lysed with SDS-PAGE lysis buffer. Lysates were transferred to 1.5 ml tubes and sonicated for 3 min, and total protein amounts were quantified using BCA Protein Assay Kit (Pierce). Equal amount of proteins were loaded on SDS-PAGE gels. Proteins were transferred onto 0.2 μm PVDF membranes (BioRad) and probed with primary antibodies diluted in Tris-buffered saline supplemented with 0.1% Tween 20 and 3% bovine serum albumin.
as §1, with “ATF4 (11815)” for “Puromycin (12D10)”, “(Cell Signaling Technologies).” for “(Merck Millipore).”, “horseradish peroxidase (HRP)-conjugated” for “HRP-conjugated”
Percentages of ATF4 inhibition after induction with Tg in the presence of 100 nM or 1 μM of certain test compounds are shown in Table 2 and FIG. 1. Percentage of ATF4 inhibition was calculated as the percent reduction normalized to Tg treatment (0% inhibition) and untreated cells (100% inhibition). Also shown in Table 2 is the calculated IC50 for the test compounds. […] Accordingly, inhibition of ATF4 expression as a result of the test compound indicates suppression of the ISR pathway.

[1] = CHO cells stressed with 300 nM Tg, Tg alone 0%
[2] = CHO cells stressed with 300 nM Tg, Tg alone 0%, read-out: % Recovery of protein expression (1 μM test compound)
[3] = unstressed CHO cells, 2 h, read-out: % Protein expression relative to untreated (1 μM test compound)

Compound	IC50 (ATF4) [nM]	activity at 0.1 µM (CHO cells; [1]) [%]	activity at 1 µM (CHO cells; [2]) [%]	inhibition at 0.1 µM (ATF4) [%]	inhibition at 1 µM (ATF4) [%]	activity at 1 µM (CHO cells; [3]) [%]
O=C(COc1ccc(Cl)c(F)c1)N[C@H]1CC[C@H](NCC(O)COc2ccc(Cl)cc2)CC1 (stereo partly drawn) [Compound 10, trans-2-(4-chloro-3-fluorophenoxy)-N-(4-((3-(4-chlorophenoxy)-2-hydroxypropyl)amino)cyclohexyl)acetamide]		30.6	127	0	11	
O=C(N[C@H]1CC[C@H](NCCOc2ccc(Cl)c(F)c2)CC1)c1ccc2cc(Cl)ccc2n1 [Compound 31, trans-6-chloro-N-(4-((2-(4-chloro-3-fluorophenoxy)ethyl)amino)cyclohexyl)quinoline-2-carboxamide]		25	288	41	93	243
O=C(COc1ccc(Cl)c(F)c1)NC1CCN(CC(O)COc2ccc(Cl)c(F)c2)CC1 (stereo not shown) [Compound 13, 2-(4-chloro-3-fluorophenoxy)-N-(1-(3-(4-chloro-3-fluorophenoxy)-2-hydroxypropyl)piperidin-4-yl)acetamide]	57.2	49.6	159	57	93	94
O=C(COc1ccc(Cl)c(F)c1)N[C@H]1CC[C@H](NC(=O)C2Cc3cc(Cl)ccc3O2)CC1 (stereo partly drawn) [Compound 19, trans-5-chloro-N-(4-(2-(4-chloro-3-fluorophenoxy)acetamido)cyclohexyl)-2,3-dihydrobenzofuran-2-carboxamide]		14.1	116	94	100	

Now from value to compound, other results behind:

IC50 (ATF4) [nM]	Compound	activity at 0.1 µM (CHO cells; [1]) [%]	activity at 1 µM (CHO cells; [2]) [%]	inhibition at 0.1 µM (ATF4) [%]	inhibition at 1 µM (ATF4) [%]	activity at 1 µM (CHO cells; [3]) [%]
27	O=C(COc1ccc(Cl)c(F)c1)NC1CCN(CC(O)COc2ccc(Cl)c(F)c2)CC1 (single isomer, unassigned; (-)) [Compound 26, (−)-2-(4-chloro-3-fluorophenoxy)-N-(1-(3-(4-chloro-3-fluorophenoxy)-2-hydroxypropyl)piperidin-4-yl)acetamide]	34.2	176	91	97	112
103	O=C(NC1CCN(CC(O)COc2ccc(Cl)c(F)c2)CC1)c1ccc2cc(Cl)ccc2n1 (stereo not shown) [Compound 22, 6-chloro-N-(1-(3-(4-chloro-3-fluorophenoxy)-2-hydroxypropyl)piperidin-4-yl)quinoline-2-carboxamide]	67.3	264	21	81	170
33.1	O=C(N[C@H]1CC[C@H](NCC(O)COc2ccc(Cl)c(F)c2)CC1)c1cc2cc(Cl)ccc2o1 (stereo partly drawn) [Compound 147, trans-5-chloro-N-(4-((3-(4-chloro-3-fluorophenoxy)-2-hydroxypropyl)amino)cyclohexyl)benzofuran-2-carboxamide]	75.2	262	95	100	190
16	O=C(COc1ccc(Cl)cc1)N[C@H]1CC[C@H](NC(=O)C2CNc3cc(Cl)ccc3O2)CC1 (stereo partly drawn) [Compound 156, trans-6-chloro-N-(4-(2-(4-chlorophenoxy)acetamido)cyclohexyl)-3,4-dihydro-2H-benzo[b][1,4]oxazine-2-carboxamide]	25.1	200	94	97	197
